Read-outs that look alike come from different tables or passages of the source. Residues, ends and D or L forms follow the SMILES beside them.
Tests used:
Format in all cases: biochemical
[1] = target: T1, Reg1_301-599 (amino acids 301-599 of human Regnase-1) phosphorylation by TBK1 (Homo sapiens, UniProt Q5D1E8); assay: Regnase-1 phosphorylation inhibition by compounds (AlphaScreen), TBK1, C-terminal Regnase-1; conditions: Table 13, read-out: Phosphorylation inhibition Reg1_301-599, 50% inhibition concentration (TBK1)
T1 construct: made in house; host or cells: Expi293 cells
T1 sequence (Q5D1E8 301-599): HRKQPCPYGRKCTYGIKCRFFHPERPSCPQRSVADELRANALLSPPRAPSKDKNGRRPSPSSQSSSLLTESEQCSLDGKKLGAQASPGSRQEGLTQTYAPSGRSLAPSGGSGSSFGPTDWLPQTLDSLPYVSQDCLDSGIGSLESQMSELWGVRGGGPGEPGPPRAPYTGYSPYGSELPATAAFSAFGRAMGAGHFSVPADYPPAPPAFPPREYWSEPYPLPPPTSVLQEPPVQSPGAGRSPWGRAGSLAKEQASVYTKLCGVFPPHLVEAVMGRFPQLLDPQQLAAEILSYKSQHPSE
Method: (§1) Among the full-length human Regnase-1 sequence, the 1st to 546th amino acid sequence was prepared and made into a construct having a FLAG tag on the N-terminal side and a biotin ligase BirA recognition sequence on the C-terminal side (herein, a Regnase-1 lacking the C-terminal domain of Regnase-1 (amino acids 547 to 599 in the case of SEQ ID NO: 2) is referred to as “ΔCTD_Reg1”. “ΔCTD_Reg1” is different from “Regnase-1ΔCTD”, which is a C-terminal domain deletion variant resulting from a frameshift mutation caused by a 1 bp deletion at codon 517, as prepared in Example 13). In addition, the sequence from amino acids 301 to 599 of the full-length human Regnase-1 sequence was designated as C-terminal Regnase-1, and a construct having a FLAG tag on the N-terminal side and a recognition sequence for biotin ligase BirA on the C-terminal side was prepared (Reg1_301-599). The above-mentioned Regnase-1 was expressed in mammalian Expi293 cells, purified with FLAG M2 agarose, and isolated by gel filtration chromatography. When biotinylation was required, methods of nonpatent documents (BMC biotechnology, 2008,8,41; and Protein Science, 1999,8,921-929) were used.
(§2) Using Kinase assay buffer III (manufactured by SignalChem) supplemented with 2 mM DTT, 100 μM sodium vanadate, and 2 mM manganese chloride, kinase (IKKβ (manufactured by SignalChem) or TBK1 (manufactured by SignalChem)) and Regnase-1 were reacted in the presence of 10 μM ATP at room temperature for 2 hours to perform a phosphorylation reaction.
(§3) Phosphorylated Regnase-1 was detected by the AlphaScreen system. After each of the above-mentioned phosphorylated Regnase-1 antibodies was added and reacted at room temperature for one hour, anti-FLAG AlphaLISA Acceptor Beads (manufactured by PerkinElmer) and Protein A AlphaScreen Donor Beads (manufactured by PerkinElmer) were added, and EnVision (manufactured by PerkinElmer) was used to measure the excited luminescence. As a result, phosphorylated Regnase-1 produced by the phosphorylation reaction by kinase was specifically detected, and signals were confirmed to be enhanced in a manner dependent on Regnase-1 and kinase concentrations (FIG. 24).
(§4) After mixing 2 nM of the above-mentioned Regnase-1 and the compound, phosphorylated Regnase-1 produced by the phosphorylation reaction was detected by the AlphaScreen system. As the results, the inhibition rate was calculated from the signals obtained when adding the compound at each concentration, by defining the signal obtained with Regnase-1 alone to be 100% inhibition rate, and the signal obtained when the same amount of solvent (DMSO) is added in place of the compound as 0% inhibition rate. The 50% inhibition concentration (μM) was calculated from the obtained dose response curve (Table 11).

[2] = target: T2, Reg1_301-599 (amino acids 301-599 of human Regnase-1) phosphorylation by IKKβ (Homo sapiens, UniProt Q5D1E8); assay: Regnase-1 phosphorylation inhibition by compounds (AlphaScreen), IKKβ, C-terminal Regnase-1; conditions: Table 14, read-out: Phosphorylation inhibition Reg1_301-599, 50% inhibition concentration (IKKβ)
T2 construct: made in house; host or cells: Expi293 cells
T2 sequence (Q5D1E8 301-599): T1 sequence (Q5D1E8 301-599)
Description: (§5) The full-length sequence of human Regnase-1 (UniProt ID: Q5D1E8) was used to prepare a construct having a FLAG tag on the N-terminal side and a recognition sequence for biotin ligase BirA on the C-terminal side (FL_Reg1) as a target protein. The above-mentioned Regnase-1 was expressed in mammalian Expi293 cells, purified with FLAG M2 agarose, and isolated by gel filtration chromatography. When biotinylation was required, methods from nonpatent documents (BMC biotechnology, 2008,8,41; and Protein Science, 1999,8,921-929) were used.
as §1, §2, §3, §4

[3] = target: T3, ΔCTD_Reg1 (amino acids 1 to 546 of human Regnase-1) phosphorylation by TBK1 (Homo sapiens, UniProt Q5D1E8); assay: Regnase-1 phosphorylation inhibition by compounds (AlphaScreen), TBK1, CTD-deficient Regnase-1
T3 construct: made in house; host or cells: Expi293 cells
T3 sequence (Q5D1E8 1-546): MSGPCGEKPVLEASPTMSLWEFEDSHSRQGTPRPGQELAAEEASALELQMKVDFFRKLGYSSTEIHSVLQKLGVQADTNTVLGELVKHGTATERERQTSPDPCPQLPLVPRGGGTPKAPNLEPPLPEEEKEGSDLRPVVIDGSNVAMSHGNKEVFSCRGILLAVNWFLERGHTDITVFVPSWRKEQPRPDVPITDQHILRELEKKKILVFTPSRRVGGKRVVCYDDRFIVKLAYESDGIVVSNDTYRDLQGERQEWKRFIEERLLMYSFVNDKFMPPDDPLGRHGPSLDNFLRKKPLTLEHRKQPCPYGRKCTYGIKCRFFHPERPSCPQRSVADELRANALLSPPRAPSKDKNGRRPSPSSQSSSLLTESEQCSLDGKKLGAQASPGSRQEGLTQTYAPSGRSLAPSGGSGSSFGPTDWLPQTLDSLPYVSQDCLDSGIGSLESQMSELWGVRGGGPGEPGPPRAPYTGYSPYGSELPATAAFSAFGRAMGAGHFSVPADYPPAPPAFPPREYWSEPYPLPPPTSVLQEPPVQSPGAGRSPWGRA
Description: as §5, §1, §2, §3, §4

[4] = Table 13, phosphorylation by TBK1, read-out: Phosphorylation inhibition ΔCTD_Reg1, 50% inhibition concentration (TBK1)
[5] = Table 11, 2 nM Regnase-1, AlphaScreen, read-out: 50% inhibition concentration, Regnase-1 phosphorylation, ΔCTD_Reg1, TBK1

Row | IC50 [1] | IC50 [2] | IC50 [3, 4] | IC50 [3, 5] | SMILES
1 | > 62.1 µM | > 62.1 µM | > 62.1 µM | – | CC[C@H](C)[C@@H]1NC(=O)[C@H](Cc2c[nH]c3ccccc23)NC(=O)[C@@H](Cc2ccccc2)NC(=O)[C@H](CCCCN)NC(=O)[C@H](C)N(C)C(=O)C[C@@H](C(=O)N2CCCC2)NC(=O)[C@H](CCC(=O)O)NC(=O)[C@H](Cc2ccccc2)NC(=O)[C@H](CO)NC(=O)[C@H](Cc2c[nH]cn2)NC(=O)[C@H](Cc2c[nH]cn2)NC1=O [PP20] (HELM PEPTIDE1{[meA].K.[dF].W.I.H.H.S.F.E.D.[C1CCN([*:1])C1]}$PEPTIDE1,PEPTIDE1,1:R1-11:R3$$$V2.0)
2 | > 62.1 µM | > 62.1 µM | – | – | CC[C@H](C)[C@@H]1NC(=O)[C@H](Cc2c[nH]c3ccccc23)NC(=O)[C@H](CCCNC(=N)N)NC(=O)[C@H](Cc2ccccc2)NC(=O)[C@H](CCC(N)=O)NC(=O)[C@H](C)NC(=O)[C@H](Cc2ccccc2)NC(=O)[C@H](CCCCN)NC(=O)[C@H](C)N(C)C(=O)C[C@@H](C(=O)N2CCCC2)NC(=O)[C@@H]2CCCN2C(=O)[C@H](Cc2ccc(O)cc2)NC1=O [PP11] (HELM PEPTIDE1{[meA].K.F.A.Q.F.R.W.I.Y.P.D.[C1CCN([*:1])C1]}$PEPTIDE1,PEPTIDE1,1:R1-12:R3$$$V2.0)
3 | 7.1 µM | 6.8 µM | – | 5.7 µM | CC[C@H](C)[C@@H]1NC(=O)[C@H](CCCNC(=N)N)NC(=O)[C@H](Cc2ccc(O)cc2)NC(=O)[C@H](Cc2c[nH]c3ccccc23)NC(=O)[C@H](C)NC(=O)[C@H](CO)NC(=O)[C@H](C)NC(=O)[C@H](Cc2c[nH]cn2)NC(=O)[C@H](CCCCN)NC(=O)[C@@H](C)N(C)C(=O)C[C@@H](C(=O)N2CCCC2)NC(=O)[C@H](Cc2c[nH]c3ccccc23)NC1=O [PP3] (HELM PEPTIDE1{[C[C@H](C(=O)[*:2])N(C)[*:1]].K.H.A.S.A.W.Y.R.I.W.D.[C1CCN([*:1])C1]}$PEPTIDE1,PEPTIDE1,1:R1-12:R3$$$V2.0)
4 | > 62.1 µM | > 62.1 µM | > 62.1 µM | > 62.1 µM | CC(C)[C@@H]1NC(=O)[C@H](CCCCN)NC(=O)[C@H](Cc2ccc(O)cc2)NC(=O)[C@H](Cc2c[nH]c3ccccc23)NC(=O)[C@H](CO)NC(=O)[C@H]([C@@H](C)O)NC(=O)[C@H](C)N(C)C(=O)C[C@@H](C(=O)N2CCCC2)NC(=O)[C@H](CCC(N)=O)NC(=O)CNC(=O)[C@H](Cc2c[nH]c3ccccc23)NC(=O)[C@H](CC(N)=O)NC1=O [PP1] (HELM PEPTIDE1{[meA].T.S.W.Y.K.V.N.W.G.Q.D.[C1CCN([*:1])C1]}$PEPTIDE1,PEPTIDE1,1:R1-12:R3$$$V2.0)

Further lines, the compound ahead of its results:

Row | SMILES | IC50 [1] | IC50 [2] | IC50 [3, 4] | IC50 [3, 5]
5 | CC[C@H](C)[C@@H]1NC(=O)[C@H](Cc2c[nH]c3ccccc23)NC(=O)[C@H](CCC(N)=O)NC(=O)[C@H](Cc2ccc(O)cc2)NC(=O)[C@H](C(C)C)NC(=O)[C@H](C)NC(=O)[C@H](Cc2ccc(O)cc2)NC(=O)[C@H](CCCNC(=N)N)NC(=O)[C@H](C)N(C)C(=O)C[C@@H](C(=O)N2CCCC2)NC(=O)[C@@H]2CCCN2C(=O)[C@H](Cc2ccc(O)cc2)NC1=O [PP12] (HELM PEPTIDE1{[meA].R.Y.A.V.Y.Q.W.I.Y.P.D.[C1CCN([*:1])C1]}$PEPTIDE1,PEPTIDE1,1:R1-12:R3$$$V2.0) | 19.6 µM | 20.7 µM | – | –
6 | CC[C@H](C)[C@@H]1NC(=O)[C@H](CC(=O)O)NC(=O)[C@H](C)N(C)C(=O)C[C@@H](C(=O)N2CCCC2)NC(=O)[C@H](Cc2ccc(O)cc2)NC(=O)[C@H](CC(=O)O)NC(=O)[C@H](Cc2c[nH]c3ccccc23)NC(=O)[C@H](Cc2ccc(O)cc2)NC(=O)[C@H](CC(=O)O)NC(=O)[C@H](Cc2ccccc2)NC(=O)[C@H](Cc2c[nH]c3ccccc23)NC1=O [PP18] (HELM PEPTIDE1{[meA].D.I.W.F.D.Y.W.D.Y.D.[C1CCN([*:1])C1]}$PEPTIDE1,PEPTIDE1,1:R1-11:R3$$$V2.0) | – | 0.5 µM | 1.8 µM | –
7 | CC[C@H](C)[C@@H]1NC(=O)[C@H](CO)NC(=O)[C@H](CCCNC(=N)N)NC(=O)[C@H](Cc2ccc(O)cc2)NC(=O)[C@H](Cc2ccc(O)cc2)NC(=O)[C@H](Cc2c[nH]c3ccccc23)NC(=O)[C@H](CO)NC(=O)[C@H](CCC(N)=O)NC(=O)[C@H](Cc2ccc(O)cc2)NC(=O)[C@H](CC(N)=O)NC(=O)[C@H](C)N(C)C(=O)C[C@@H](C(=O)N2CCCC2)NC(=O)[C@H](Cc2c[nH]c3ccccc23)NC1=O [PP10] (HELM PEPTIDE1{[meA].N.Y.Q.S.W.Y.Y.R.S.I.W.D.[C1CCN([*:1])C1]}$PEPTIDE1,PEPTIDE1,1:R1-13:R3$$$V2.0) | 0.4 µM | 1.8 µM | 0.2 µM | –

Source: patent US20250018014A1, “METHOD FOR TREATING AND/OR PREVENTING REGNASE-1-RELATED DISEASE” (OSAKA UNIVERSITY, priority 2018, published 2025)
